Results taken from patent publication US20240368183A1, “Macrocyclic Compounds Having ENT1 Inhibiting Activity” (iTeos Belgium SA, priority 2021, published 2024).
Where two headings read alike, the source gives them in different places.

Legend:
[1] = tested on: stimulated primary human T cells; assay: T cell proliferation assay (rescue of proliferation in the presence of ATP); assay type: cell-based
Description: The aim of this study was to determine the potency of equilibrative nucleoside transporter 1 (ENT1) inhibitors to rescue proliferation by stimulated primary human T cells incubated in the presence of 100 uM Adenosine triphosphate (ATP), in baseline conditions (condition A) or in the presence of various proteins known to bind small molecules (condition B)
Condition B: X-VIVO15, 2% Human Serum Albumine (HSA) and 0.1% α-1-Acid Glycoprotein (AAG)
Cryopreserved purified human CD3+ T cells were thawed and washed twice with RPMI1640 medium, UltraGlutamine containing 10% hiFBS.
Cells were suspended in PBS containing 10% hiFBS. Cells were stained with CFSE by adding 2 μM solution in PBS, to get a final 1 μM CFSE solution. Cells were incubated while rotating for 5 minutes. Reaction was stopped by adding PBS with 10% FBS and cells were centrifuged for 5 minutes at 1500 rpm.
Cells were resuspended at 1.6×10^6 cells/mL, either in X-VIVO15 medium or in 4% Human Serum Albumin and 0.2% α-1-Acid Glycoprotein. 50 μL of cell suspension (8×10^4 T cells) was added to wells of sterile round-bottom 96-well plates. Cells were activated by adding 50 μL of anti-CD3 anti-CD28 coated microbeads, suspended either in XVIVO-15 medium or in 4% HSA and 0.2% α-1-Acid Glycoprotein, at a ratio of one microbead per two cells.
Serial dilutions of the ENT1 inhibitors were prepared in X-VIVO15 from 10 mM stock solutions in DMSO, and 50 μL was added to the wells.
ATP powder was diluted in X-VIVO15, and 50 μL of this compound was added to the wells to reach a final assay concentration of 100 μM. Final volume of 200 μL.
The experiments were also performed in 384 well plates—all volumes reduced by a factor of 4 (12.5 μL) with a final volume of 50 μL.
Experiments were performed in duplicate. The cells were placed in a 37° C. humidified tissue culture incubator with 5% CO2 for 72 hours for 96 well plates, 96 hours for 384 well plates After 72 or 96 hours, proliferation was measured determined by CFSE dilution via flow cytometry.

human ENT1 = target: T1, human ENT1 (Homo sapiens, UniProt Q99808); assay: ENT1 binding assay (competition with Sahenta-DY647); conditions: JAR cells expressing ENT1; competition with Sahenta-DY647 (100 nM); 4° C.
T1 construct: JAR cells expressing ENT1 were bought from ATCC® (HTB-144TM); host or cells: JAR cells (human choriocarcinoma line, own knowledge)
T1 sequence (Q99808 1-456): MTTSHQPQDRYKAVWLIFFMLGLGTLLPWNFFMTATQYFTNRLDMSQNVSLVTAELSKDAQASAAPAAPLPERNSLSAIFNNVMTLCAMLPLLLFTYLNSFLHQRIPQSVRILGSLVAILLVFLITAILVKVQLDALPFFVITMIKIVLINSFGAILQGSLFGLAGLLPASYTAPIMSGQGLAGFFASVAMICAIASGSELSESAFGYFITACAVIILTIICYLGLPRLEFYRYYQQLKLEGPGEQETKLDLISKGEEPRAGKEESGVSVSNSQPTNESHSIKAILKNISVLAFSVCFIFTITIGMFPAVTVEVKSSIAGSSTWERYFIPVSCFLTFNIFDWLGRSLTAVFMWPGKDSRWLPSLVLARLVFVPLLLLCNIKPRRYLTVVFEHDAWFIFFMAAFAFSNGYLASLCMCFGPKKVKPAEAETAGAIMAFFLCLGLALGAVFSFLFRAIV
Description: The present assay aims at showing that the compounds of the present disclosure can bind to human ENT1. The principle of the assay is a competition between the compounds of this present disclosure and Sahenta-DY647, an ENT1 inhibitor that emits fluorescence (Ex=630 nm, Em=670 nm). By measuring the fluorescence at the end of the assay we could assess the binding potency of the compounds of the present disclosure.
JAR cells expressing ENT1 were bought from ATCC® (HTB-144TM). Cells were cultured in RPMI 1640 medium (LONZA®, #BE12-702F/U1) supplemented with 10% FBS (GIBCO®, #10270-106), 10 mM Hepes (LONZA®, #BE17-737E), 1 mM Sodium Pyruvate (LONZA®, #BE13-115E) and 2% Penicillin/Streptomycin (LONZA®, #DE17-603E) at 37° C. and 5% CO2. The assay was conducted on the following buffer: HBSS (LONZA®, #LO-527F) supplemented with 10 mM Hepes (LONZA®, #BE17-737E) and 0.1% BSA (Miltenyi®, #130-091-376) on the day of the assay.
JAR cells were resuspended in the described buffer. Compounds of the present disclosure and Sahenta-DY647 were diluted 200× in the described buffer.
A total of 50 000 cells were pre-incubated for 30 min at 4° C. with the compounds of the present disclosure before adding the corresponded IC90 of Sahenta-DY647 (100 nM) and incubate once more for 30 min at 4° C. The total volume of the reaction was 100 μL (50 μL of cells, 25 μL of the compounds of the present disclosure and 25 μL of Sahenta-DY647) in a 96 well plate, U-bottom (Greiner®, #650-180). The plates were washed 2× by centrifugation (4 min, 400 rcf at 4° C.) in the same buffer. Cells were re-suspended in 70 μL of the buffer and 50 μL was transferred to a Black 384 Optiplate (PerkinElmer®, #6007279). Fluorescence (Ex=630 nm, Em=670 nm) was acquired on a Spectramax i3x (Molecular Devices®).

[2] = Condition B: X-VIVO15, 2% Human Serum Albumine (HSA) and 0.1% α-1-Acid Glycoprotein (AAG), 100 μM ATP, read-out: (2) T Cell proliferation (Condition B) IC50
[3] = Homo sapiens, Condition A: X-VIVO15, 100 μM ATP, read-out: T Cell proliferation (Condition A) IC50

COc1cc2cc(c1OC)OCCCC(n1cc(-c3ccccc3)cn1)CCN1CCCN(CCCOC2=O)CC1 (stereo not drawn) [Compound 29]
IC50 [1, 2]: 20 to 500 nM | IC50 [1, 3]: < 1 nM | IC50 (human ENT1): 1 to 20 nM

COc1cc(C(=O)OC2CCCOc3cc(cc(OC)c3OC)C(=O)NCCCN3CCN(CC2)CC3=O)cc(OC)c1OC (stereo not drawn) [Compound 30]
IC50 [1, 2]: 20 to 500 nM | IC50 [1, 3]: < 1 nM | IC50 (human ENT1): 1 to 20 nM

COc1cc(C(=O)OC2CCCOc3cc(cc(Cl)c3Cl)C(=O)NCCCN3CCCN(CC2)CC3)cc(OC)c1OC (stereo not drawn) [Compound 33]
IC50 [1, 2]: > 500 nM | IC50 [1, 3]: 1 to 20 nM | IC50 (human ENT1): 20 to 500 nM

COc1cc(C(=O)OC2CCCOc3cc(cc(OC)c3OC)-c3cn(nn3)CCCN3CCCN(CC2)CC3)cc(OC)c1OC (stereo not drawn) [Compound 37]
IC50 [1, 2]: 20 to 500 nM | IC50 [1, 3]: < 1 nM | IC50 (human ENT1): 1 to 20 nM

COc1cc2cc(c1OC)OCCCC(OC(=O)NCC(=O)N1CCOCC1)CCN1CCCN(CCCNC2=O)CC1 (stereo not drawn) [Compound 40]
IC50 [1, 2]: 20 to 500 nM | IC50 [1, 3]: 20 to 500 nM | IC50 (human ENT1): 20 to 500 nM

COc1cc(C(=O)OC2CCCOc3cc(cc(OC)c3OC)COCCN(C)C3CCN(CC2)CC3)cc(OC)c1OC (stereo not drawn) [Compound 41]
IC50 [1, 2]: 20 to 500 nM | IC50 [1, 3]: < 1 nM | IC50 (human ENT1): 1 to 20 nM

COc1cc(C(=O)OC2CCCOc3cc(cc(OC)c3OC)COCCC3CCN(CC3)CC2)cc(OC)c1OC (stereo not drawn) [Compound 42]
IC50 [1, 2]: 20 to 500 nM | IC50 [1, 3]: < 1 nM | IC50 (human ENT1): 1 to 20 nM

COc1cc(C(=O)OC2CCCOc3cc(cc(OC)c3OC)COCCOCCN(C)CC2)cc(OC)c1OC (stereo not drawn) [Compound 43]
IC50 [1, 2]: 20 to 500 nM | IC50 [1, 3]: < 1 nM | IC50 (human ENT1): 1 to 20 nM

COc1cc(C(=O)OC2CCCOc3cc(cc(OC)c3OC)COCCN3CCCN(CC2)CC3)cc(OC)c1OC (stereo not drawn) [Compound 44]
IC50 [1, 2]: 20 to 500 nM | IC50 [1, 3]: < 0.1 nM | IC50 (human ENT1): 1 to 20 nM

COc1cc(C(=O)OC2CCCOc3cc(cc(OC)c3OC)CCCCS(=O)(=O)N3CCCN(CC2)CC3)cc(OC)c1OC (stereo not drawn) [Compound 47]
IC50 [1, 2]: 1 to 20 nM | IC50 [1, 3]: < 1 nM | IC50 (human ENT1): 1 to 20 nM
